Measurements taken from patent US20240294508A1, “RIP1 MODULATORS INCLUDING AZETIDINE CYCLIC UREAS, PREPARATIONS, AND USES THEREOF” (SIRONAX LTD., priority 2021, published 2024).

Test system: HT-29 cells
Assay: HT29 cells 0FBS assay in vitro: TNF-α/SMAC mimetic/zVAD-FMK induced necroptosis, CellTiter-Glo cell viability (RIP1 inhibitory activity)
Format: cell-based
Details: Homo sapiens, FBS free medium, TNF-α (10 ng/ml) + SMAC mimetic (6 uM) + zVAD-FMK (10 μM), 20 hours, geometric mean EC50
From the text: Protocol for HT29 Cells 0FBS Assay In Vitro
• Cell line: HT-29 (ATCC® HTB-38™) • Culture medium: McCOY's 5A, Gibco, Cat No. 16600-082 • FBS, Gibco, Cat No. 10099-141C • Trypsin: Gibco, Cat No. 25200-056 • DMSO: Sigma, Cat No. 67-68-5, 1L • Assay plate: Corning #3903 • Compound dilution plate: Corning #3357 • Inducers: TNFα, GenScript, Cat No. Z01001-50, • SmacM, Cat. No., HY-15989, MedChemExpress (MCE) • Z_VAD FMK, TargetMol, T6013 • Cell Titer-Glo® Luminescent Cell Viability Assay Kit: Promega, Cat No. G7573 • EnVision: PerkinElmer, 2105-0010
2. Cell Seeding of HT-29 Cells
1) HT-29 cells were checked every day to make sure they are healthy and growing as expected. They were split sub-culturing when were approximately 80% confluent.
2) First pre-warm the culture medium of McCOY's 5A medium (Gibco, Cat No. 16600-082) with 10% FBS (Gibco, Cat No. 10099-141C) in 37° C. water bath for at least 30 min.
3) Growing cells to desired level of confluency 80% in a T75 flask, aspirate the medium, and wash with warm PBS two times.
4) Add 2-3 ml fresh warm trypsin (Gibco, Cat No. 25200-056) solution. Transfer the flask to a 37° C. incubator.
5) After 5 minutes, tap the side of the flask, and examine the flask under a microscope for lifting. If necessary, return the cells to the incubator for an additional 5-10 minutes, with occasional tapping, until lifting is complete.
6) Quickly neutralize the trypsin reaction by adding 6-9 ml cell culture medium, then transfer the cells to sterile 15 ml conical tubes. Pellet the cells by centrifugation at 300×g for 7 minutes, then decant the supernatant.
7) Resuspend the cells in fresh cell culture medium. Do cell counting with hemocytometer.
8) Seed 100 μl of 5,000 cells into each well of the sterile 96-well cell culture plate (Corning 3903) and culture overnight at 37° C. with 5% CO2.
3. Compounds Titration and Treatment of HT-29 Cells
1) All batches of compounds (CPDs0 (e.g., compound 1-169) were dissolved in DMSO (Dimethyl sulfoxide) as 20 mM stock solution.
2) Take 3 ul 20 mM stock solution of CPDs to […] DMSO and mix well, continue the titration ratio of 1:3 (20 ul CPDs+40 ul DMSO), e.g., to give solutions of CPDS at 6.6 mM, 2.2 mM, etc., till the 10 points end.
3) Take out assay plates with HT-29 cells from incubator, remove all culture medium then wash 1 time with 1×PBS, and change fresh McCOY's 5A medium of FBS free with a cocktail of TNF-α (10 ng/ml), the SMAC mimetic (6 uM) and zVAD-FMK (10 μM) to stimulate the HT-29 cells to increase pRIPK1 levels and necroptosis.
4) Add 0.5 μL of the diluted compound to the corresponding 96-well assay plates.
5) Incubate the assay plates for 20 hours at 37° C. with 5% CO2.
4. Performing Cell Viability Detection of HT-29 Cells after Treated with Compounds
1) The CellTiter-Glo® Luminescent Cell Viability Assay was employed to detect the ATP levels of viable HT-29 cells.
2) Equilibrate the CellTiter-Glo® buffer and the lyophilized substrate to room temperature prior to use.
3) Resuspend the CellTiter-Glo® substrate with CellTiter-Glo® buffer, mix by gently vortexing to obtain a homogeneous solution.
4) Pipette 20 μl the enzyme/substrate mixture by multi-channel pipette into the 96-well assay plates from step 5) under the Compounds titration and treatment stage.
5) Place the plates on an orbital shaker and mix the contents for 3 minutes to induce cell lysis.
6) Then allow the plates to incubate at room temperature for 10 minutes to stabilize luminescent signal.
7) Read and record luminescence signal with EnVision.
8) The geometric mean EC50 of the compounds were calculated from 10 points response dose with duplicate. In Table 2, activity is provided as follows: +++=0.1 nM≤EC50<100 nM; ++=100 nM≤EC5 1000 nM; […].

Compound | EC50 [nM]
O=C(N1CC(Oc2cc(-c3ccc[nH]c3=O)ncc2F)C1)N1N=CC[C@H]1c1cc(F)cc(F)c1 [Compound 167, (S)-4-((1-(5-(3,5-difluorophenyl)-4,5-dihydro-1H-pyrazole-1-carbonyl)azetidin-3-yl)oxy)-5-fluoro-[2,3′-bipyridin]-2′(1′H)-one] | 0.1 to 100
Cc1c(C(N)=O)nn(C)c1-c1cc(OC2CN(C(=O)N3N=CC[C@H]3c3cc(F)cc(C#N)c3)C2)c(F)cn1 [Compound 58, (S)-5-(4-((1-(5-(3-cyano-5-fluorophenyl)-4,5-dihydro-1H-pyrazole-1-carbonyl)azetidin-3-yl)oxy)-5-fluoropyridin-2-yl)-1,4-dimethyl-1H-pyrazole-3-carboxamide] | 0.1 to 100
Cc1nn(-c2cc(OC3CN(C(=O)N4N=CC[C@H]4c4cc(F)cc(C#N)c4)C3)c(F)cn2)c(C)c1C(=O)O [Compound 83, (S)-1-(4-((1-(5-(3-cyano-5-fluorophenyl)-4,5-dihydro-1H-pyrazole-1-carbonyl)azetidin-3-yl)oxy)-5-fluoropyridin-2-yl)-3,5-dimethyl-1H-pyrazole-4-carboxylic acid] | 0.1 to 100
Cc1cnc([C@H]2CC=NN2C(=O)N2CC(Oc3cc(-c4c(C)cnn4C)ncc3F)C2)s1 [Compound 137, (R)-(3-((2-(1,4-dimethyl-1H-pyrazol-5-yl)-5-fluoropyridin-4-yl)oxy)azetidin-1-yl)(5-(5-methylthiazol-2-yl)-4,5-dihydro-1H-pyrazol-1-yl)methanone] | 1000 to 10000
Cc1nn(-c2cc(OC3CN(C(=O)N4N=CC[C@H]4c4ccccc4)C3)c(F)cn2)c(C)c1C(=O)O [Compound 84, (S)-1-(5-fluoro-4-((1-(5-phenyl-4,5-dihydro-1H-pyrazole-1-carbonyl)azetidin-3-yl)oxy)pyridin-2-yl)-3,5-dimethyl-1H-pyrazole-4-carboxylic acid] | 0.1 to 100
Cn1ncc(C(N)=O)c1-c1cc(OC2CN(C(=O)N3N=CC[C@H]3c3cc(F)cc(C#N)c3)C2)c(F)cn1 [Compound 10, (S)-5-(4-((1-(5-(3-cyano-5-fluorophenyl)-4,5-dihydro-1H-pyrazole-1-carbonyl)azetidin-3-yl)oxy)-5-fluoropyridin-2-yl)-1-methyl-1H-pyrazole-4-carboxamide] | 100 to 1000
Cn1nccc1-c1ncc(F)c(OC2CN(C(=O)N3N=CC[C@H]3c3cncc(F)c3)C2)n1 [Compound 2, (S)-(3-((5-fluoro-2-(1-methyl-1H-pyrazol-5-yl)pyrimidin-4-yl)oxy)azetidin-1-yl)(5-(5-fluoropyridin-3-yl)-4,5-dihydro-1H-pyrazol-1-yl)methanone] | 0.1 to 100
Cn1ncc(-c2cc(OC3CN(C(=O)N4N=CC[C@H]4c4cc(F)cc(C#N)c4)C3)c(F)cn2)n1 [Compound 15, (S)-3-fluoro-5-(1-(3-((5-fluoro-2-(2-methyl-2H-1,2,3-triazol-4-yl)pyridin-4-yl)oxy)azetidine-1-carbonyl)-4,5-dihydro-1H-pyrazol-5-yl)benzonitrile] | 100 to 1000
Cn1ccnc1-c1cc(OC2CN(C(=O)N3N=CC[C@H]3c3cncc(F)c3)C2)c(F)cn1 [Compound 37, (S)-(3-((5-fluoro-2-(1-methyl-1H-imidazol-2-yl)pyridin-4-yl)oxy)azetidin-1-yl)(5-(5-fluoropyridin-3-yl)-4,5-dihydro-1H-pyrazol-1-yl)methanone] | 0.1 to 100
Cc1cnn(C)c1-c1nc(OC2CN(C(=O)N3N=CC[C@H]3c3cncc(F)c3)C2)sc1C#N [Compound 152, (S)-4-(1,4-dimethyl-1H-pyrazol-5-yl)-2-((1-(5-(5-fluoropyridin-3-yl)-4,5-dihydro-1H-pyrazole-1-carbonyl)azetidin-3-yl)oxy)thiazole-5-carbonitrile] | 0.1 to 100
Cc1cnn(C)c1-c1cc(OC2CN(C(=O)N3N=CC[C@H]3c3cncc(C#N)c3)C2)c(F)cn1 [Compound 42, (S)-5-(1-(3-((2-(1,4-dimethyl-1H-pyrazol-5-yl)-5-fluoropyridin-4-yl)oxy)azetidine-1-carbonyl)-4,5-dihydro-1H-pyrazol-5-yl)nicotinonitrile] | 0.1 to 100
Cc1ccn(C)c(=O)c1-c1cc(OC2CN(C(=O)N3N=CC[C@H]3c3cc(F)cc(F)c3)C2)c(F)cn1 [Compound 168, (S)-4-((1-(5-(3,5-difluorophenyl)-4,5-dihydro-1H-pyrazole-1-carbonyl)azetidin-3-yl)oxy)-5-fluoro-1′,4′-dimethyl-[2,3′-bipyridin]-2′(1′H)-one] | 1000 to 10000
Cc1cc(F)cc(C2CC=NN2C(=O)N2CC(Oc3cc(-c4c(C)cnn4C)ncc3F)C2)c1 (centres unmarked) [Compound 130, (3-((2-(1,4-dimethyl-1H-pyrazol-5-yl)-5-fluoropyridin-4-yl)oxy)azetidin-1-yl)(5-(3-fluoro-5-methylphenyl)-4,5-dihydro-1H-pyrazol-1-yl)methanone] | 0.1 to 100
Cc1nn(-c2cc(OC3CN(C(=O)N4N=CCC4c4cc(F)cc(F)c4F)C3)c(F)cn2)c(C)c1S(N)(=O)=O (centres unmarked) [Compound 112, 1-(5-fluoro-4-((1-(5-(2,3,5-trifluorophenyl)-4,5-dihydro-1H-pyrazole-1-carbonyl)azetidin-3-yl)oxy)pyridin-2-yl)-3,5-dimethyl-1H-pyrazole-4-sulfonamide] | 0.1 to 100
Cc1noc(C)c1-c1cc(OC2CN(C(=O)N3N=CC[C@H]3c3cc(F)cc(C#N)c3)C2)c(F)cn1 [Compound 89, (S)-3-(1-(3-((2-(3,5-dimethylisoxazol-4-yl)-5-fluoropyridin-4-yl)oxy)azetidine-1-carbonyl)-4,5-dihydro-1H-pyrazol-5-yl)-5-fluorobenzonitrile] | 0.1 to 100
Cc1ncsc1-c1cc(OC2CN(C(=O)N3N=CC[C@H]3c3cc(F)cc(C#N)c3)C2)c(F)cn1 [Compound 18, (S)-3-fluoro-5-(1-(3-((5-fluoro-2-(4-methylthiazol-5-yl)pyridin-4-yl)oxy)azetidine-1-carbonyl)-4,5-dihydro-1H-pyrazol-5-yl)benzonitrile] | 0.1 to 100
Cn1ncc(F)c1-c1cc(OC2CN(C(=O)N3N=CC[C@H]3c3cncc(F)c3)C2)c(F)cn1 [Compound 45, (S)-(3-((5-fluoro-2-(4-fluoro-1-methyl-1H-pyrazol-5-yl)pyridin-4-yl)oxy)azetidin-1-yl)(5-(5-fluoropyridin-3-yl)-4,5-dihydro-1H-pyrazol-1-yl) methanone] | 0.1 to 100
Cn1ncc(C#N)c1-c1ccc(F)c(OC2CN(C(=O)N3N=CC[C@H]3c3cncc(F)c3)C2)n1 [Compound 34, (S)-5-(5-fluoro-6-((1-(5-(5-fluoropyridin-3-yl)-4,5-dihydro-1H-pyrazole-1-carbonyl)azetidin-3-yl)oxy)pyridin-2-yl)-1-methyl-1H-pyrazole-4-carbonitrile] | 0.1 to 100
Cc1nn(-c2cc(OC3CN(C(=O)N4N=CC[C@@H]4c4cc(F)cc(Cl)c4)C3)c(F)cn2)c(C)c1C(N)=O [Compound 134, (R)-1-(4-((1-(5-(3-chloro-5-fluorophenyl)-4,5-dihydro-1H-pyrazole-1-carbonyl)azetidin-3-yl)oxy)-5-fluoropyridin-2-yl)-3,5-dimethyl-1H-pyrazole-4-carboxamide] | 100 to 1000
Cn1nccc1-c1ncc(F)c(OC2CN(C(=O)N3N=CC[C@H]3c3cc(F)cc(C#N)c3)C2)n1 [Compound 1, (S)-3-fluoro-5-(1-(3-((5-fluoro-2-(1-methyl-1H-pyrazol-5-yl)pyrimidin-4-yl)oxy)azetidine-1-carbonyl)-4,5-dihydro-1H-pyrazol-5-yl)benzonitrile] | 0.1 to 100
